Assay results reported in ChEMBL document CHEMBL1148805 (J Med Chem, 2007).
Calls of active or inactive are those of the source. No cut-off for these calls is given here.

Experiments:
[1] = biological target: Aldo-keto reductase family 1 member B1 (Rattus norvegicus, UniProt P07943)
Description: Inhibition of ALR2 in Sprague-Dawley Albino rat lens

[2] = biological target: Aldo-keto reductase family 1 member A1 (Rattus norvegicus, UniProt P51635)
Description: Inhibition of ALR1 in Sprague-Dawley Albino rat kidney

Brain [3] = assay: tissue or blood; conditions: Rattus norvegicus, Sprague-Dawley Albino
Brain [4] = assay: tissue or blood; conditions: Rattus norvegicus, Sprague-Dawley Albino; remark: listed apart in the source
Brain [5] = conditions: Rattus norvegicus, Sprague-Dawley Albino, 10 uM

Sequence of Aldo-keto reductase family 1 member A1 (P51635 whole entry, looked up): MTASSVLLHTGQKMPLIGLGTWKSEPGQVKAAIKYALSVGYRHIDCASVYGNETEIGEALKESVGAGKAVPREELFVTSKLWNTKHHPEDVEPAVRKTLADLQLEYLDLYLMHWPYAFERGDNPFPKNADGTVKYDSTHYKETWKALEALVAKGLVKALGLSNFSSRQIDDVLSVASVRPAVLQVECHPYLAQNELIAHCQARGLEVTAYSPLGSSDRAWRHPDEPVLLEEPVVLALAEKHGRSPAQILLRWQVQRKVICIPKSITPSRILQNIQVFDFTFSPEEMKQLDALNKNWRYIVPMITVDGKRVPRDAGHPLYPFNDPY
Description for physchem: Acid dissociation constant, pKa of the compound

Structure (SMILES)	IC50 [1] [µM]	IC50 [2] [µM]	pKa (physchem)	inhibition at 100 µM (Brain [3]) [%]	inhibition at 10 µM (Brain [4]) [%]	Activity (Brain [5])
O=c1cc(Cc2ccccc2)nc2cccc(O)n12	55	> 10	–	45.7	19.3	–
O=c1cc(-c2ccc(O)c(O)c2)nc2cccc(O)n12	0.1	> 10	–	85.9	66.5	–
O=c1cc(Cc2ccc(O)c(O)c2)nc2cccc(O)n12	12	> 10	–	89.9	56.7	–
COc1ccc(-c2cc(=O)n3ccccc3n2)cc1OC	> 10	> 10	–	18.8	–	inactive
CC(=O)N(O)CCCCCNC(=O)CCC(=O)N(O)CCCCCNC(=O)CCC(=O)N(O)CCCCCN [DEFEROXAMINE]	–	–	–	72	–	–
COc1ccc(Cc2cc(=O)n3c(O)cccc3n2)cc1	> 10	> 10	–	42.4	18.9	–
O=c1cc(-c2ccc(O)c(O)c2)nc2ccccn12	0.67	> 10	6.8	71.6	26.6	–
COc1ccc(-c2cc(=O)n3c(O)cccc3n2)cc1OC	100	> 10	–	64.7	28.5	–
O=c1cc(Cc2ccc(O)cc2)nc2cccc(O)n12	44	> 10	–	51.4	11.5	–
COc1ccc(Cc2cc(=O)n3c(O)cccc3n2)cc1OC	> 10	> 10	–	45.1	25.8	–
Cc1c(C)c2c(c(C)c1O)CC[C@@](C)(CCCC(C)CCCC(C)CCCC(C)C)O2 (single isomer, unassigned) [ALPHA-TOCOPHEROL]	–	–	–	18.2	–	–
COc1ccc(-c2cc(=O)n3ccccc3n2)cc1	> 10	> 10	–	15.1	8.3	–
O=c1cc(-c2ccccc2)nc2ccccn12	> 10	> 10	–	22.4	10.8	–
COc1ccc(-c2cc(=O)n3c(O)cccc3n2)cc1	0.74	> 10	–	82.8	50.4	–

Second part, led by results:

IC50 [1] [µM]	IC50 [2] [µM]	pKa (physchem)	Structure (SMILES)	inhibition at 100 µM (Brain [3]) [%]	inhibition at 10 µM (Brain [4]) [%]	Activity (Brain [5])
> 10	> 10	10.2	O=c1cc(-c2ccccc2)nc2c(O)cccn12	11.9	5.9	–
> 10	> 10	–	COc1ccc(-c2cc(=O)n3cccc(O)c3n2)cc1	11.5	3.4	–
0.45	> 10	–	O=c1cc(-c2ccc(O)c(O)c2)nc2c(O)cccn12	81.5	48.2	–
4.56	> 10	7.6	O=c1cc(-c2ccc(O)cc2)nc2ccccn12	23.7	–	inactive
> 10	> 10	–	COc1ccc(-c2cc(=O)n3cccc(O)c3n2)cc1OC	8.8	1.2	–
2.07	> 10	–	O=c1cc(-c2ccc(O)cc2)nc2c(O)cccn12	43.2	11.8	–
0.42	> 10	–	O=c1cc(-c2ccc(O)cc2)nc2cccc(O)n12	42.4	21.2	–
